These results are taken from ChEMBL document CHEMBL3734744, “Synthesis, 3D pharmacophore, QSAR and docking studies of novel quinazoline derivatives with nitric oxide release moiety as preferential COX-2 inhibitors” (Medchemcomm, 2015).

For series [1], the target named is T1, Prostaglandin G/H synthase 2 (Ovis aries, UniProt P79208).
T1 sequence (P79208 whole entry): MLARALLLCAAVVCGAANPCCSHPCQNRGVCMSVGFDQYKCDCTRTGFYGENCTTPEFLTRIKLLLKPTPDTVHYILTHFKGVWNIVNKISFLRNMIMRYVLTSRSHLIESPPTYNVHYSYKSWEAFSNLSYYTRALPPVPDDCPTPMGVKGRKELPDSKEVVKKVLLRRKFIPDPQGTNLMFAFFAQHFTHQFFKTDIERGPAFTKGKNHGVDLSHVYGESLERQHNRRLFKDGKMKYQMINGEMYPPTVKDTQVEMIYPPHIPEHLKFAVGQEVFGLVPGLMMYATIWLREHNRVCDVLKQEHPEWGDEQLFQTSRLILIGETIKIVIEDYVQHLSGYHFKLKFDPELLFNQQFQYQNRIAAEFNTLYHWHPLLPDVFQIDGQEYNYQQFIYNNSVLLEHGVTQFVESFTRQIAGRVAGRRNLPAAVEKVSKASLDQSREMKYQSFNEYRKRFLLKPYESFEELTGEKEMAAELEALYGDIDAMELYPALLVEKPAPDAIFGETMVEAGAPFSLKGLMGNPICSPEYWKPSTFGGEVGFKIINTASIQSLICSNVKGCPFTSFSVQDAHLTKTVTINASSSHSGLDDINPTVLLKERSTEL
As to the kind of experiment: Inhibition of ovine COX2 after 5 mins by enzyme immuno assay.

The test system of series [2] is Rattus norvegicus. As to the kind of experiment: Gastrointestinal toxicity in Wistar albino rat assessed as ulceration at 10 mg/kg/day, po administered for 3 days measured after 2 hrs post last dose by haematoxylin/eosin staining-based microscopic analysis. The series is classed as organism-based. The note with it: in vivo.
Series [3] concerns the target T2, Prostaglandin G/H synthase 1 (Ovis aries, UniProt P05979).
T2 sequence (P05979 whole entry): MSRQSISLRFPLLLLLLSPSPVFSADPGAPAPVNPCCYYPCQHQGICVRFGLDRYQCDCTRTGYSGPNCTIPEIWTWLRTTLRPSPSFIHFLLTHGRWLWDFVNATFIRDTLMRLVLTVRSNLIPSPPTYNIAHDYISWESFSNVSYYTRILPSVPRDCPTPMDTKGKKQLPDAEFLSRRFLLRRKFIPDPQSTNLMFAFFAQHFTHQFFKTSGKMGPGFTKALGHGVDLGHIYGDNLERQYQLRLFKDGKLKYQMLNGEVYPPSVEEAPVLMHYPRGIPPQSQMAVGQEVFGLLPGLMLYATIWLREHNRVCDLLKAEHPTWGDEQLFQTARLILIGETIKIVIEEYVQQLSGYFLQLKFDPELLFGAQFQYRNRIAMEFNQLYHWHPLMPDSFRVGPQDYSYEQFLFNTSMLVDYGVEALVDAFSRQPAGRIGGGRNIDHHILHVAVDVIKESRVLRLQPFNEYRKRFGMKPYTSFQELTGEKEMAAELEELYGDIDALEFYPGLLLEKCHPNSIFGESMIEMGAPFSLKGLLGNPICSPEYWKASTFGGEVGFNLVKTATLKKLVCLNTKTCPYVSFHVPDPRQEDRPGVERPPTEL
As to the kind of experiment: Inhibition of ovine COX1 after 5 mins by enzyme immuno assay.

Series [4] relates to Rattus norvegicus. As to the kind of experiment: Antiinflammatory activity in Sprague-Dawley rat assessed as inhibition of carrageenan-induced paw edema at 80 mg/kg, po administered 30 mins prior to carrageenan challenge measured at 3 hrs by plethysmometer relative to meloxicam. The class given is functional. For orientation: The carrageenan paw model is a standard test of acute inflammation.

Another series relates to Serum. In words: Induction of nitric oxide release in rat serum by Griess assay. The series is classed as functional. A general note: Nitrite, measured by Griess reagent, commonly stands in for NO production.
Series [5] concerns Rattus norvegicus. As to the kind of experiment: Antiinflammatory activity in Sprague-Dawley rat assessed as inhibition of carrageenan-induced paw edema at 80 mg/kg, po administered 30 mins prior to carrageenan challenge measured at 1 hr by plethysmometer. The class given is functional.
Series [6] concerns Rattus norvegicus. As to the kind of experiment: Antiinflammatory activity in Sprague-Dawley rat assessed as inhibition of carrageenan-induced paw edema at 80 mg/kg, po administered 30 mins prior to carrageenan challenge measured at 3 hrs by plethysmometer. The series is classed as functional.
The species entered for the next series is Ovis aries. As to the kind of experiment: Selectivity index, ratio of IC50 for ovine COX1 to IC50 for ovine COX2.
For series [7], the system named is Rattus norvegicus. As to the kind of experiment: Antiinflammatory activity in Sprague-Dawley rat assessed as inhibition of carrageenan-induced paw edema at 80 mg/kg, po administered 30 mins prior to carrageenan challenge measured at 2 hrs by plethysmometer. The class given is functional.
Series [8] concerns Rattus norvegicus. In words: Gastrointestinal toxicity in Wistar albino rat assessed as ulcer index at 10 mg/kg/day, po administered for 3 days measured after 2 hrs post last dose. The class given is organism-based. The conditions noted are these: in vivo.
Series [9] has as its system Rattus norvegicus. In words: Gastrointestinal toxicity in Wistar albino rat assessed as ulcer index at 5 mg/kg/day, po administered for 3 days measured after 2 hrs post last dose. The series is classed as organism-based. The note with it: in vivo.
Series [10] concerns Rattus norvegicus. In words: Gastrointestinal toxicity in Wistar albino rat assessed as irregular mucosa at 5 mg/kg/day, po administered for 3 days measured after 2 hrs post last dose by haematoxylin/eosin staining-based microscopic analysis. The class given is organism-based. The note with it: in vivo.
In series [11] the test system is Rattus norvegicus. In words: Gastrointestinal toxicity in Wistar albino rat assessed as ulceration at 5 mg/kg/day, po administered for 3 days measured after 2 hrs post last dose by haematoxylin/eosin staining-based microscopic analysis. The class given is organism-based. The note with it: in vivo.
The test system of series [12] is Rattus norvegicus. As to the kind of experiment: Gastrointestinal toxicity in Wistar albino rat assessed as intact mucosa at 10 mg/kg/day, po administered for 3 days measured after 2 hrs post last dose by haematoxylin/eosin staining-based microscopic analysis. The series is classed as organism-based. The note with it: in vivo.
In series [13] the test system is Rattus norvegicus. In words: Gastrointestinal toxicity in Wistar albino rat assessed as mild erosion at 10 mg/kg/day, po administered for 3 days measured after 2 hrs post last dose by haematoxylin/eosin staining-based microscopic analysis. The class given is organism-based. The conditions noted are these: in vivo.

As usually defined, the IC50 is the concentration that inhibits the measured activity by half. A high value points to a need for much substance. What is called inhibition in vivo is how much of the control response was suppressed. Turning to `CC(=O)Nc1ccc(S(=O)(=O)Nn2c(CO[N+](=O)[O-])nc3ccccc3c2=O)cc1`, the half-inhibitory concentration (IC50) in series [1] came out at 3.59 µM; in [3], 24.1 µM. The Activity entry is “Toxic” with Rattus norvegicus [2] and 7.9 µmol/L in the series on Serum. The inhibition in vivo at 80 mg/kg with Rattus norvegicus [4] was over 100%; with Rattus norvegicus [5], 15.2%; with Rattus norvegicus [6] it was 64.8%; in the series on Rattus norvegicus [7], 40.4%. The Ratio IC50 in the series listed under Ovis aries was 6.72. Besides, the UI in the series on Rattus norvegicus [8] was 1.3.

Turning to `Cc1nc2ccccc2c(=O)n1NS(=O)(=O)c1ccccc1`, the IC50 in [1] came to 8.58 µM; in series [3], 30.1 µM. In addition, the inhibition in vivo at 80 mg/kg in the series with Rattus norvegicus [4] came to 77.2%; with Rattus norvegicus [5], 5.6%; in the series with Rattus norvegicus [6], 47.8%; with Rattus norvegicus [7], 22.2%. The Ratio IC50 in the series filed under Ovis aries came out at 3.5.

For the molecule `Cc1nc2ccccc2c(=O)n1NC(=S)Nc1ccccc1`, the IC50 amounted to 3.67 µM in series [1] and 18.9 µM in series [3]. Besides, the inhibition in vivo at 80 mg/kg with Rattus norvegicus [4] was 100%; in the series with Rattus norvegicus [5] it was 14.4%; in the series with Rattus norvegicus [6], 61.9%; with Rattus norvegicus [7], 42.9%. Also, in the series listed under Ovis aries, the Ratio IC50 amounted to 5.13.

Turning to `O=c1c2ccccc2nc(CO[N+](=O)[O-])n1NS(=O)(=O)c1ccccc1`, the values for the IC50 in series [1] and in series [3] were 42.1 µM and 98.6 µM, respectively. Besides, the Activity entry in the series with Rattus norvegicus [2] is “Non-toxic”; with Serum, 16.73 µmol/L. In addition, the inhibition in vivo at 80 mg/kg in the series on Rattus norvegicus [4] was found to be 55%; in the series with Rattus norvegicus [5], 2.4%; in the series on Rattus norvegicus [6], 34%; with Rattus norvegicus [7], 11.6%. Further, the Ratio IC50 in the series filed under Ovis aries amounted to 2.41. Also, in the series with Rattus norvegicus [8], the UI turned out to be 0.5.

For the molecule `Cc1nc2ccccc2c(=O)n1NC(=O)NC(C)(C)C`, the figures for the 50% inhibitory concentration (IC50) in [1] and in series [3] were 6.53 µM and 34.5 µM, respectively. Moreover, the inhibition in vivo at 80 mg/kg in the series with Rattus norvegicus [4] came out at 82.5%; in the series with Rattus norvegicus [5], 10.4%; in the series with Rattus norvegicus [6], 51%; in the series with Rattus norvegicus [7], 29.8%. Besides, the Ratio IC50 in the series listed under Ovis aries amounted to 5.28.

As for `Cc1nc2ccccc2c(=O)n1NC(=O)NC1CCCCC1`, the results for the 50% inhibitory concentration (IC50) in series [1] and in series [3] were 5 µM and 23.8 µM, respectively. The inhibition in vivo at 80 mg/kg in the series with Rattus norvegicus [4] came out at 88.6%; with Rattus norvegicus [5], 12%; in the series with Rattus norvegicus [6], 54.8%; in the series on Rattus norvegicus [7] it was 41.9%. In the series filed under Ovis aries, the Ratio IC50 was 4.74.

On to `CC(=O)Nc1ccc(S(=O)(=O)Nn2c(C)nc3ccccc3c2=O)cc1`, for which the half-inhibitory concentration (IC50) was found to be 4.41 µM in series [1] and 22.8 µM in series [3]. In addition, the inhibition in vivo at 80 mg/kg in the series on Rattus norvegicus [4] turned out to be 95.7%; with Rattus norvegicus [5], 20.8%; in the series with Rattus norvegicus [6] it was 59.2%; in the series with Rattus norvegicus [7] it was 37.4%. Besides, the Ratio IC50 in the series listed under Ovis aries was found to be 5.16.

With `COc1ccc2c(c1)c(CC(=O)O)c(C)n2C(=O)c1ccc(Cl)cc1` [INDOMETHACIN], the UI with Rattus norvegicus [9] worked out at 1.8. The Activity result in the series with Rattus norvegicus [10] and with Rattus norvegicus [11] was “Toxic” in each case.

On to `Cc1cnc(NC(=O)C2=C(O)c3ccccc3S(=O)(=O)N2C)s1` [MELOXICAM], for which, in the series with Rattus norvegicus [2], the Activity entry is “Toxic”. For the same molecule, the values for the inhibition in vivo at 80 mg/kg in the series on Rattus norvegicus [5], in the series with Rattus norvegicus [6] and in the series on Rattus norvegicus [7] were 20.8%, 61.9% and 43.4%, respectively. Moreover, the UI in the series with Rattus norvegicus [8] came out at 0.6.

Regarding `O=C(Nc1ccccc1)Nn1c(CO[N+](=O)[O-])nc2ccccc2c1=O`, the 50% inhibitory concentration (IC50) came out at 5.93 µM in series [1] and 24.4 µM in [3]. The values for the Activity result with Rattus norvegicus [2] and in the series on Serum were “Non-toxic” and 22.8 µmol/L, respectively. For the same molecule, the inhibition in vivo at 80 mg/kg is 82.9% in the series with Rattus norvegicus [4], 6.4% in the series with Rattus norvegicus [5], 51.3% with Rattus norvegicus [6] and 25.8% with Rattus norvegicus [7]. For the same molecule, the Ratio IC50 in the series filed under Ovis aries turned out to be 4.11. Moreover, the UI in the series with Rattus norvegicus [8] stood at 0.6.

`O=C(NC1CCCCC1)Nn1c(CO[N+](=O)[O-])nc2ccccc2c1=O`: the IC50 was found to be 6.86 µM in [1] and 34.6 µM in [3]. The values for the Activity entry in the series on Rattus norvegicus [12] and with Serum were “Non-toxic” and 28.53 µmol/L, respectively. Moreover, the inhibition in vivo at 80 mg/kg with Rattus norvegicus [4] is 80.6%; in the series with Rattus norvegicus [5], 8%; in the series with Rattus norvegicus [6], 49.9%; with Rattus norvegicus [7] it was 18.7%. Further, in the series filed under Ovis aries, the Ratio IC50 came out at 5.03. The UI in the series on Rattus norvegicus [8] is 0.4.

On to `Cc1ccc(S(=O)(=O)Nn2c(CO[N+](=O)[O-])nc3ccccc3c2=O)cc1`, for which the concentration for half-maximal inhibition (IC50) came to 11.7 µM in series [1] and 38.8 µM in series [3]. Further, the Activity result is “Toxic” with Rattus norvegicus [2] and 10.4 µmol/L in the series on Serum. The inhibition in vivo at 80 mg/kg came to 71.6% with Rattus norvegicus [4], 6.4% in the series on Rattus norvegicus [5], 44.3% with Rattus norvegicus [6] and 15.7% with Rattus norvegicus [7]. Besides, the Ratio IC50 in the series listed under Ovis aries was found to be 3.32. Also, the UI in the series with Rattus norvegicus [8] was found to be 1.

As for `Cc1ccc(S(=O)(=O)Nn2c(C)nc3ccccc3c2=O)cc1`, the values for the IC50 in series [1] and in series [3] were 5.75 µM and 32.7 µM, respectively. Moreover, the inhibition in vivo at 80 mg/kg with Rattus norvegicus [4] was found to be 83.9%; with Rattus norvegicus [5] it was 3.2%; in the series with Rattus norvegicus [6], 51.9%; with Rattus norvegicus [7] it was 24.2%. In addition, the Ratio IC50 in the series filed under Ovis aries amounted to 5.67.

Take `CC(C)(C)NC(=O)Nn1c(CO[N+](=O)[O-])nc2ccccc2c1=O`: the results for the 50% inhibitory concentration (IC50) in series [1] and in [3] were 12.5 µM and 44.6 µM, respectively. Also, the Activity result in the series with Rattus norvegicus [13] was “Toxic”; in the series on Serum, 10.76 µmol/L. The inhibition in vivo at 80 mg/kg is 70.6% with Rattus norvegicus [4], 6.4% with Rattus norvegicus [5], 43.7% in the series with Rattus norvegicus [6] and 14.1% in the series with Rattus norvegicus [7]. In the series filed under Ovis aries, the Ratio IC50 was 3.57. The UI with Rattus norvegicus [8] was 0.9.
